Our source for the IC50 values is ChEMBL document CHEMBL1141263, “Sesquiterpenoids and cytotoxic lignans from the bark of Libocedrus chevalieri” (J Nat Prod, 2007).

The nature of experiment [1]: Inhibition of tubulin polymerization.
The next experiment relates to KB. The experiment can be described thus: Cytotoxicity against human KB cells by microculture tetrazolium assay. It counts as functional, cell-based.
For a further experiment, the system named is L1210. Put plainly: Cytotoxicity against mouse L1210 cells by microculture tetrazolium assay. It counts as functional, cell-based.

As a reminder, the IC50 is the concentration needed to halve the response being measured.

Consider `COc1cc([C@@H]2c3cc4c(c(OC)c3[C@H](O)[C@H]3COC(=O)[C@H]23)OCO4)cc(OC)c1OC`, for which the half-maximal inhibitory concentration (IC50) in experiment [1] came out at 5 µM; in the experiment with KB, 0.011 µM.
On to `COc1cc([C@@H]2c3cc4c(c(OC)c3[C@@H](O)[C@H]3COC(=O)[C@H]23)OCO4)cc(OC)c1OC`, for which the IC50 was 82 µM in the experiment with L1210, 9 µM in experiment [1] and 0.045 µM in the experiment on KB.
